Assays:
[1] = system: rat neuroid cells B50; assay: Toxicity evaluation, cell viability by Alamar Blue after 24 hours; assay type: cell-based; settings: 12.5, 25, 50, 100, or 200 μmol/l, FIG. 5
Protocol: Rat neuroid cells B50 were seeded in 12-well plates and then cultured. Edaravone (RC), ED2AP, or BisEp-C3 was added to each well so as to achieve a predetermined concentration (12.5, 25, 50, 100, or 200 μmol/l), and then incubated for 24 hours at 37° C. and 5% CO2. Cell viability in each well after the culture was measured using Alamar Blue.

[2] = system: neutrophils isolated from the peripheral blood of healthy individuals; assay: Superoxide production amount of PMA-stimulated neutrophils, CLA chemiluminescence; assay type: cell-based, human; settings: 0-200 μmol/l or 0-5000 μmol/l; PMA 100 ng/ml; control being 100; FIG. 2
Protocol: For examining the reactive oxygen-eliminating effect of the antioxidant of the present invention, the superoxide produced by the neutrophils when the neutrophils isolated from the peripheral blood of healthy individuals were stimulated with PMA (phorbor-12-myristate-13-acetate) was used. The superoxide production amount was measured by chemiluminescence using CLA (2-methyl-6-pjenyl-3, 7-dihydroimidazo[1,2-a]pyrazine-3-one).
(§1) First, ED2AP, BisEp-C3, edaravone, BisEp-C1, or BisEp-C1 (H2) was added to a neutrophil of 4×10^5 cells per sample so as to achieve a predetermined concentration (0, 12.5, 25, 50, 100, or 200 μmol/l, or 0, 125, 250, 500, 1250, 2500, or 5000 μmol/l) with 5 μmol of CLA, and then the cell suspension was seeded in flat-bottomed 96-well plates. The volume of the suspension was 200 μl/well, and phenol red free Ca+, Mg+ HBSS was used as the solution. In addition, the neutrophil was stimulated by adding PMA so as to achieve a concentration of 100 ng/ml. After the stimulation, a plate reader (Envision 2104 Multilabel Reader, produced by Perkin Elmer Co., Ltd.) was used to measure the chemiluminescence value over time for 30 minutes with the PMA stimulation time being a reference. The measurement interval was 30 seconds. The sum of the chemiluminescence values obtained every 30 seconds for 30 minutes was taken as the superoxide production amount. In addition, as a control, the superoxide production amount was measured in the same manner except that each compound was not added. The relative value of the superoxide production amount when each compound was added was calculated with the superoxide production amount of the control being 100.

[3] = system: rat neuroid cells B50; assay: Toxicity evaluation on byproducts after reaction with singlet oxygen, cell viability; assay type: cell-based; settings: 50, 100, or 200 μmol/l reacted with RB + G-LED 525 nm in cell-free system; FIG. 6
Protocol: In a cell-free system, the RB was added to media (50% FCS-containing RPMI-1640 media) containing edaravone, ED2AP, and BisEp-C3 having a predetermined concentration (50, 100, or 200 μmol/l) and then irradiated with LED (G-LED) at 525 nm to generate singlet oxygen, whereby reacting each compound with singlet oxygen. The cell viability was measured in the same manner as in Example 7(1), except that the culture solution after the reaction was used as a medium of the neuroid cell B50. As a negative control (NC), the cell viability was measured in the same manner except that each compound and […] were not added in the cell-free system. Further, as a control (RB), the cell viability was measured in the same manner except that each compound was not added and only […] was added in the cell-free system.

[4] = system: rat neuroid cells B50; assay: Alleviation of singlet oxygen (Rose Bengal + G-LED) cytotoxicity, Alamar Blue fluorescence; assay type: cell-based; settings: 0, 12.5, 25, 50, or 100 μmol/l; 200 nmol/l RB + G-LED 5 minutes; FIG. 3
Protocol: Edaravone, ED2AP and BisEp-C3 were examined whether they had the function of alleviating neuronopathy. Specifically, singlet oxygen was generated by combining Rose Bengal (RB), which is a sensitizer, with green light (G-LED), and the function of alleviating the cytotoxicity of the generated singlet oxygen was examined with the cellular activity being an indicator.
First, rat neuroid cells B50 were cultured in 12-well dishes at 2×10^5 cells/well (medium: RPMI-1640 medium containing 5% FCS) overnight. After the culturing, the medium of each well was replaced with HBSS (1000 μl/well; phenol red free Ca+, Mg+) containing 200 nmol/l RB and edaravone, ED2AP, or BisEp-C3 having a predetermined concentration (0, 12.5, 25, 50, or 100 μmol/l). The dish was then irradiated with G-LED for 5 minutes to generate singlet oxygen. Thereafter, the medium of each well was replaced with 1000 μl of HBSS and Alamar Blue was added. The dish was then allowed to react for about 2 hours in an incubator at 37° C. and 5% CO2. After the reaction, fluorescence intensity (excitation wavelength: λ-560 nm, fluorescence wavelength: λ-595 nm) was measured with a plate reader (infinite200, Tecan Trading AG). In this experimental system, the higher the cellular activity, the more Alamar Blue is taken up and the higher the fluorescence intensity. As a control, fluorescence intensity was measured in the same manner except that sodium azide (Azide, NaN3) was added instead of the compounds so as to achieve a concentration of 4 mmol/l. As a negative control (NC), fluorescence intensity was measured in the same manner except that RB was not added. The relative value of the fluorescence intensity in the sample to which each compound was added was calculated with the fluorescence intensity of the negative control being 100.

[5] = system: neutrophils isolated from the peripheral blood of healthy individuals; assay: Superoxide production amount of PMA-stimulated neutrophils with PBS solutions stored for 10 days vs immediately after preparation; assay type: cell-based, human; settings: PBS solution stored for 10 days vs immediately after preparation; 0, 6.25, 12.5, 25, 50, 100 or 20 μmol/l; FIG. 4
Protocol: as §1
PBS solutions of ED2AP, BisEp-C3, and edaravone were prepared in the same manner as in Example 2 and stored for 10 days. The superoxide production amount was calculated in the same manner as in Example 4 except that the PBS solution after storage was added instead of ED2AP, BisEp-C3, edaravone, BisEp-C1 or BisEp-C1 (H2) so as to achieve a predetermined concentration (0, 6.25, 12.5, 25, 50, 100 or 20 μmol/l) of ED2AP, BisEp-C3 or edaravone. Further, PBS solutions of ED2AP, BisEp-C3, and edaravone were prepared in the same manner as in Example 2, and the superoxide production amount was calculated in the same manner except that the PBS solution immediately after preparation was used. Then, the relative value of the superoxide production amount of each sample was calculated with the superoxide production amount of the sample of 0 μmol/l being 100.

[6] = Storage stability in pH7.4-PBS or pure water at 37° C. protected from light, residual rate by HPLC; assay type: physicochemical; settings: 200 μmol/l; for Residual rate (%) After 1 week / Residual rate (%) After 2 weeks: 37° C., protected from light; for Residual rate (%) Initial concentration: initial concentration (reference 100%)
Protocol: The storage stability of edaravone, EMPO, ED2AP, and BisEp-C3 of the following formula (A) were examined. Specifically, edaravone, EMPO, ED2AP, and BisEp-C3 were dissolved in pH7.4-PBS or pure water so as to have a final concentration of 200 μmol/l to prepare dissolved solutions of these compounds. When the compounds were difficult to be dissolved, they were dissolved in an ultrasonic cleaner with warm water at 40° C.
Under the measurement conditions for HPLC described below, the initial concentration was quantified, and then each solution was stored in an oven, which was protected from light, at 37° C., and quantified under the same measurement conditions after 1 week and 2 weeks, to determine residual rate (%) with the initial concentration (100%) being a reference.
Measurement conditions for HPLC
PDA detector (Format: SPD-M20A) HPLC Assay Conditions:
Column: Atlantis dC18 5 μm (250×4.6 mm I.D.; produced by Waters)
Column temperature: 45° C.
Detection method: UV (254 nm)
Eluate A: pH3 buffer solution (adjusted to pH3 by adding phosphoric acid to 0.05M KH2PO4 aqueous solution)/methanol=90/10

Question: For CC1=NN(c2ccccc2)C(=O)C1 [Edaravone, 5-methyl-2-phenyl-2,4-dihydro-3H-pyrazol-3-one, reference compound], which “cytotoxicity (cell viability)” value [1] is on record?
Answer: The value was “not cytotoxic at any concentration”.

Question: What about the “relative value of the superoxide production amount” value [2] of the same compound?
Answer: The value was “suppressed the superoxide production amount in a concentration-dependent manner”.

Question: What about the “cytotoxicity of the byproducts after reaction with singlet oxygen (cell viability)” value [3] of the same compound?
Answer: The value was “not cytotoxic at any concentration”.

Question: And the “recovery of the fluorescence intensity (cellular activity)” value [4]?
Answer: The value was “not recovered”.

Question: And the “superoxide-eliminating ability after storage” value [5]?
Answer: Its value is “remarkably lowered after storage for 10 days”.

Question: And the “Residual rate (%) After 1 week” value ([6]; Pure water)?
Answer: The value was 82.8%.

Question: And the “Residual rate (%) After 2 weeks” value ([6]; Pure water)?
Answer: Its value is 80.4%.

Question: And the “Residual rate (%) Initial concentration” value ([6]; Pure water)?
Answer: The value was 100%.

Question: And the “Residual rate (%) After 1 week” value ([6]; pH 7.4-PBS)?
Answer: Its value is 31.2%.

Question: And the “Residual rate (%) After 2 weeks” value ([6]; pH 7.4-PBS)?
Answer: Its value is 0.2%.

Question: And the “Residual rate (%) Initial concentration” value ([6]; pH 7.4-PBS)?
Answer: Its value is 100%.

Source: patent US20220110916A1, “Antioxidant and Use Thereof” (Bioradical Research Institute Corp., priority 2019, published 2022)
